Results from patent publication US20180153995A1, “USE OF ANTIMICROBIAL POLYMERS FOR RE-SENSITIZATION OF MICROORGANISMS UPON EMERGENCE OF RESISTANCE TO ANTI-MICROBIAL AGENTS” (Technion Research & Development Foundation Limited, priority 2008, published 2018).
“And” between values parts separate entries of the source, which are not always exact repeats. Identical values can stand only once. Like-named read-outs stand apart in the source and are kept apart here.

Assays:
[1] = test system: E. coli K-12 efflux knockout mutant; type: cell-based, Escherichia coli; conditions: E. coli AG100A (efflux−)
In short: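 Broth microdilution, inocula 10^5 bacteria/ml, 24 h at 37 °C. Growth read as OD620 against calibration standards.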

[2] = test system: S. maltophila 748; test: Antibiotic MIC by microdilution with or without sub-MIC polymer; type: cell-based, Stenotrophomonas maltophila
[3] = test system: S. aureus 17314; test: as above; type: cell-based, Staphylococcus aureus
[4] = test system: E. coli 14182; test: as above; type: cell-based, Escherichia coli
[5] = test system: S. aureus 15819; test: as above; type: cell-based, Staphylococcus aureus; conditions: S. aureus 15819
Description: MICs were determined by microdilution susceptibility testing in 96-well plates (by Nunc) using inocula of 10^5 bacteria per ml. Cell populations were evaluated by optical density measurements at 620 nm and were calibrated against a set of standards. Hundred (100) μl of a bacterial suspension were added to 100 μl of culture medium (control) or to 100 μl of culture medium containing various polymer concentrations in 2-fold serial dilutions. Inhibition of proliferation was determined by optical density measurements at 620 nm after an incubation period of 24 hours at 37° C.
MICs were determined by microdilution susceptibility testing in 96-well plates (Nunc) using inocula of 10^5 bacteria per ml. One hundred (100) μl of a bacterial suspension were added to 100 μl of culture medium (control) or to 100 μl of culture medium containing various antibiotic and C12(5-ene)KKNC12KNH2 (SEQ ID NO: 2) concentrations in 2-fold serial dilutions. Inhibition of proliferation was determined by optical density measurements at 620 nm after an incubation period of 24 hours at 37° C.

[6] = test system: E. coli 16327; test: microbe, parasite or virus in culture
[7] = +¼ MIC (1.6 μM) C12K(KNC12K)3NH2
[8] = +½ MIC (3.12 μM) C12K(KNC12K)3NH2
[9] = +⅓ MIC (2.1 μM) C12K(KNC12K)3NH2

Cc1onc(-c2ccccc2)c1C(=O)N[C@@H]1C(=O)N2[C@@H]1SC(C)(C)[C@@H]2C(=O)O [Oxacillin, oxacillin]
256 µg/mL: Antibiotic MIC [2, 8]
0.25 µg/mL: Antibiotic MIC in presence of C12K(NC8K)7NH2 (SEQ ID NO: 4), +½ MIC ([1]; polymer at ½ of its MIC (Table 16)) | Antibiotic MIC in presence of C12K(NC8K)7NH2 (SEQ ID NO: 4), +⅓ MIC ([1]; polymer at ⅓ of its MIC (Table 16)) | Antibiotic MIC in presence of the OAK, +½ MIC ([1]; the OAK at ½ of its MIC (Table 17)) | Antibiotic MIC ([3]; S. aureus 17314, +¼ MIC (1.6 μM) C12KKNC12KNH2) | Antibiotic MIC ([3]; S. aureus 17314, +¼ MIC (1.6 μM) C16(9-ene)KKNC12KNH2) | Antibiotic MIC ([3]; S. aureus 17314, +½ MIC (3.12 μM) C12KKNC12KNH2) | Antibiotic MIC ([3]; S. aureus 17314, +⅓ MIC (2.1 μM) C12KKNC12KNH2) | Antibiotic MIC ([3]; S. aureus 17314, +⅓ MIC (2.1 μM) C16(9-ene)KKNC12KNH2) | Antibiotic MIC ([3]; S. aureus 17314, no polymer (None), Table 9) | Antibiotic MIC ([3]; S. aureus 17314, no polymer (None), Table 11) | Antibiotic MIC ([3]; S. aureus 17314, no polymer (None), Table 12)
8 µg/mL: Antibiotic MIC ([5]; +¼ MIC (1.6 μM) C12KKNC12KNH2) | Antibiotic MIC ([5]; +⅓ MIC (2.1 μM) C12KKNC12KNH2) | Antibiotic MIC ([5]; no polymer (None), Table 11) | Antibiotic MIC ([5]; no polymer (None), Table 13)
0.25 to 0.5 µg/mL: Antibiotic MIC ([3]; S. aureus 17314, no polymer (None), Table 10)
1 µg/mL: Antibiotic MIC ([5]; +½ MIC (3.12 μM) C12(5-ene)KKNC12KNH2)
512 µg/mL: Antibiotic MIC [2, 7] | Antibiotic MIC [2, 9] | Antibiotic MIC ([2]; no polymer (None), Table 13)
0.5 µg/mL: Antibiotic MIC in presence of the OAK, +¼ MIC ([1]; the OAK at ¼ of its MIC (Table 17)) | Antibiotic MIC in presence of the OAK, +⅓ MIC ([1]; the OAK at ⅓ of its MIC (Table 17))
>512 µg/mL: Antibiotic MIC ([4]; +½ MIC C12K(NC8K)5NH2) | Antibiotic MIC, None ([4]; antibiotic alone (Table 15)) | Antibiotic MIC ([4]; no polymer (None), Table 14) | Antibiotic MIC in presence of C12K(NC8K)7NH2 (SEQ ID NO: 4), +¼ MIC ([4]; polymer at ¼ of its MIC) | Antibiotic MIC in presence of C12K(NC8K)7NH2 (SEQ ID NO: 4), +½ MIC ([4]; polymer at ½ of its MIC) | Antibiotic MIC in presence of C12K(NC8K)7NH2 (SEQ ID NO: 4), +⅓ MIC ([4]; polymer at ⅓ of its MIC) | Antibiotic MIC ([6]; E. coli 16327, +¼ MIC (1.6 μM) C12K(KNC12K)2NH2)
512 µg/mL and >512 µg/mL: Antibiotic MIC [6]
0.125 to 0.25 µg/mL: Antibiotic MIC [3] | Antibiotic MIC ([3]; S. aureus 17314, +¼ MIC (1.6 μM) C12K(KNC12K)2NH2) | Antibiotic MIC ([3]; S. aureus 17314, +½ MIC (3.12 μM) C12K(KNC12K)2NH2) | Antibiotic MIC ([3]; S. aureus 17314, +⅓ MIC (2.1 μM) C12K(KNC12K)2NH2)
4 µg/mL: Antibiotic MIC [5, 7] | Antibiotic MIC ([5]; no polymer (None), Table 8)
0.06 µg/mL: Antibiotic MIC ([3]; S. aureus 17314, +½ MIC (3.12 μM) C16(9-ene)KKNC12KNH2)
2 µg/mL: Antibiotic MIC ([5]; +¼ MIC (1.6 μM) C12(5-ene)KKNC12KNH2) | Antibiotic MIC ([5]; +½ MIC (3.12 μM) C12KKNC12KNH2) | Antibiotic MIC ([5]; +⅓ MIC (2.1 μM) C12(5-ene)KKNC12KNH2) | Antibiotic MIC [5, 9]
0.5 to 1 µg/mL: Antibiotic MIC, None ([1]; antibiotic alone (Table 16)) | Antibiotic MIC, None ([1]; antibiotic alone (Table 17)) | Antibiotic MIC in presence of C12K(NC8K)7NH2 (SEQ ID NO: 4), +¼ MIC ([1]; polymer at ¼ of its MIC (Table 16)) | Antibiotic MIC [5, 8]
